According to patent US6703347B2, “Isothiazole derivatives and their use as pesticides” (Syngenta Limited, priority 2000, dated 2004):
“And” between values parts separate entries of the source, which are not always exact repeats. Equal entries are not always repeated.

Legend:
[1] = test system: Plasmopara viticola (PLASVI); assay: foliar fungicide test on vines (Example 19); format: in vivo; details: 100 ppm foliar (Prot) application on vines; inoculated 6 hours or one day after application
[2] = test system: fruit flies (Drosophila melanogaster); assay: pesticidal test against fruit flies; details: liquid composition containing 500 ppm by weight of compound
Experimental: (§1) The activities of individual compounds of formula (I) were determined using a variety of pests. The pests were treated with a liquid composition containing 500 parts per million (ppm) by weight of a compound of formula (I). Each composition was made by dissolving the compound in an acetone and ethanol (50:50 by volume) mixture and diluting the solution with water containing 0.05% by volume of a wetting agent, SYNPERONIC NP8, until the liquid composition contained the required concentration of the compound.
(§2) The test procedure adopted with regard to each pest was essentially the same and comprised supporting a number of the pests on a medium, which was usually a substrate, a host plant or a foodstuff on which the pests feed, and treating either or both the medium and the pests with a composition. Pest mortality was assessed usually between two and five days after treatment.
(§3) Similar tests were conducted against, independently, two-spotted spider mites (Tetranychus urticae), fruit flies (Drosophila melanogaster), tobacco budworms (Heliothis virescens), diamond back moth (Plutella xylostella) and corn root worm (Diabrotica balteata).

[3] = test system: peach potato aphids (Myzus persicae); details: 500 ppm by weight; infested Chinese cabbage leaves sprayed; mortality assessed after three days
[4] = test system: corn root worm (Diabrotica balteata); assay: pesticidal test against corn root worm; details: liquid composition containing 500 ppm by weight of compound
Experimental: as §1, §2, §3

[5] = test system: Blumeria graminis f.sp. tritici (ERYSGT); assay: foliar fungicide test on wheat (Example 19); format: in vivo; details: 100 ppm foliar (Prot) application on wheat; inoculated 6 hours or one day after application
[6] = test system: tobacco budworms (Heliothis virescens); assay: pesticidal test against tobacco budworms; details: liquid composition containing 500 ppm by weight of compound
Experimental: as §1, §2, §3

[7] = test system: peach potato aphids (Myzus persicae); assay: whole plant or invertebrate; details: 72 h, read-out: mortality (score) Mp
[8] = test system: diamond back moth (Plutella xylostella); assay: pesticidal test against diamond back moth; details: liquid composition containing 500 ppm by weight of compound
Experimental: as §1, §2, §3

[9] = test system: Puccinia recondita (PUCCRT); assay: foliar fungicide test on wheat (Example 18); format: in vivo; details: 100 ppm foliar spray on wheat; inoculated one day after chemical application (Prot)
[10] = test system: Uncinula necator (UNCINE); assay: foliar fungicide test on vines (Example 18); format: in vivo; details: 100 ppm foliar spray on vines; for UNCINE Erad, PRCO (Percentage Reduction from Control): inoculated one day before chemical application (Erad)
[11] = test system: Phytophthora infestans lycopersici (PHYTIN); format: in vivo; details: 100 ppm foliar spray on tomatoes; inoculated one day after chemical application (Prot)
[12] = test system: two-spotted spider mites (Tetranychus urticae); details: liquid composition containing 500 ppm by weight of compound
Experimental: as §1, §2, §3

[13] = test system: Pyricularia oryzae (PYRIOR); format: in vivo; details: 100 ppm foliar spray on rice; inoculated one day after chemical application (Prot)

Structure (SMILES)	mortality (score) Dm [2]	mortality (score) Mp [3]	mortality (score) Db [4]	mortality (score) Hv [6]	mortality (score) Px [8]	also measured
CC(=O)OCC(C(=O)Nc1snc(C)c1Cl)c1ccc2oc(CC(C)(C)C)nc2c1 (stereo not shown) [Table 28 Compound 7]	0 (represents less than 40% mortality)	5 (5 indicates 40-79% mortality)	0 (represents less than 40% mortality)	9 (9 indicates 80-100% mortality)		PLASVI Prot, PRCO (Percentage Reduction from Control) [1]: 97; ERYSGT Prot, PRCO (Percentage Reduction from Control) [5]: 98
CCc1nsc(NC(=O)C(C)c2ccc3sc(CC(C)C)nc3c2)c1Cl (stereo not shown) [Table 39 Compound 86, N-(4-chloro-3-ethylisothiazol-5-yl)-2-[2-(2-methylpropyl)benzothiazol-5-yl]propionamide]	0 (represents less than 40% mortality)		9 (9 indicates 80-100% mortality)	9 (9 indicates 80-100% mortality)	9 (9 indicates 80-100% mortality)	mortality at 500 ppm [7]: 40 to 79%
Cc1nsc(NC(=O)C(c2ccc3oc(CC(C)(C)C)nc3c2)C(C)C)c1Cl (stereo not shown) [Table 3 Compound 7]						PUCCRT Prot, PRCO (Percentage Reduction from Control) [9]: 19; UNCINE Erad, PRCO (Percentage Reduction from Control) [10]: 91; PHYTIN Prot, PRCO (Percentage Reduction from Control) [11]: 20
Cc1nsc(NC(=O)C(=CNCc2ccc(Cl)cc2)c2ccc3oc(CC(C)(C)C)nc3c2)c1Cl [Table 19 Compound 7]		5 (5 indicates 40-79% mortality) and 9 (9 indicates 80-100% mortality)				mortality (score) Tu [12]: 9 (9 indicates 80-100% mortality)
CCOCN(C(=O)C(C)c1ccc2oc(CC(F)(F)F)nc2c1)c1snc(C)c1Cl (stereo not shown) [Table 1 Compound 78]	9 (9 indicates 80-100% mortality)	9 (9 indicates 80-100% mortality)	9 (9 indicates 80-100% mortality)	9 (9 indicates 80-100% mortality)	9 (9 indicates 80-100% mortality)	
CCc1nsc(NC(=O)C(F)c2ccc3sc(CC(C)(C)C)nc3c2)c1Cl (stereo not shown) [Table 42 Compound 87]	9 (9 indicates 80-100% mortality)	9 (9 indicates 80-100% mortality)	9 (9 indicates 80-100% mortality)	9 (9 indicates 80-100% mortality)	9 (9 indicates 80-100% mortality)	
CCc1nsc(NC(=O)C(OC)c2ccc3oc(CC(C)C)nc3c2)c1Cl (stereo not shown) [Table 9 Compound 86]	5 (5 indicates 40-79% mortality)	9 (9 indicates 80-100% mortality)	9 (9 indicates 80-100% mortality)	9 (9 indicates 80-100% mortality)	9 (9 indicates 80-100% mortality)	
Cc1nsc(NC(=O)C(C)c2ccc3oc(CC(F)(F)F)nc3c2)c1Cl (stereo not shown) [Table 1 Compound 8, N-(4-chloro-3-methylisothiazol-5-yl)-2-[2-(2,2,2-trifluoroethyl)benzoxazol-5-yl]propionamide]	0 (represents less than 40% mortality)		9 (9 indicates 80-100% mortality)	9 (9 indicates 80-100% mortality)	9 (9 indicates 80-100% mortality)	mortality at 500 ppm [7]: 40 to 79%
CCOC(=O)CNN=C(C(=O)Nc1snc(C)c1Cl)c1ccc2oc(CC(C)(C)C)nc2c1 [Table 30 Compound 7]		9 (9 indicates 80-100% mortality)				ERYSGT Prot, PRCO (Percentage Reduction from Control) [5]: 100
CCOCN(C(=O)/C=C/c1ccc2oc(CC(C)(C)C)nc2c1)c1snc(C)c1Cl [Table 81 Compound 77]	0 (represents less than 40% mortality)	0 (represents less than 40% mortality)	9 (9 indicates 80-100% mortality)	0 (represents less than 40% mortality)	0 (represents less than 40% mortality)	mortality (score) Tu [12]: 0 (represents less than 40% mortality)
C=C(C(=O)Nc1snc(C)c1Cl)c1ccc2oc(CC(C)(C)C)nc2c1 [Table 11 Compound 7]						PYRIOR Prot, PRCO (Percentage Reduction from Control) [13]: 66; PUCCRT Prot, PRCO (Percentage Reduction from Control) [9]: 27; UNCINE Prot, PRCO (Percentage Reduction from Control) ([10]; inoculated one day after chemical application (Prot)): 73; PHYTIN Prot, PRCO (Percentage Reduction from Control) [11]: 50
CCOCN(C(=O)C(F)c1ccc2oc(CC(C)(C)C)nc2c1)c1snc(CC)c1Cl (stereo not shown) [Table 5 Compound 157]	9 (9 indicates 80-100% mortality)	9 (9 indicates 80-100% mortality)	9 (9 indicates 80-100% mortality)	9 (9 indicates 80-100% mortality)	9 (9 indicates 80-100% mortality)	
CCOCN(C(=O)C(C)c1ccc2oc(CC(C)(C)C)nc2c1)c1snc(C)c1Cl (stereo not shown) [Table 1 Compound 77]	0 (represents less than 40% mortality)	9 (9 indicates 80-100% mortality)	9 (9 indicates 80-100% mortality)	9 (9 indicates 80-100% mortality)	9 (9 indicates 80-100% mortality)	
Cc1nsc(NC(=O)C(O)c2ccc3oc(CC(C)(C)C)nc3c2)c1Cl (stereo not shown) [Table 7 Compound 7]	9 (9 indicates 80-100% mortality)	0 (represents less than 40% mortality)			9 (9 indicates 80-100% mortality)	mortality (score) Tu [12]: 9 (9 indicates 80-100% mortality)
Cc1nsc(NC(=O)C(C)c2ccc3oc(CC(C)(C)C)nc3c2)c1Cl (stereo not shown) [Table 1 Compound 7, N-(4-chloro-3-methylisothiazol-5-yl)-2-[2-(2,2-dimethylpropyl)benzoxazol-5-yl]propionamide]						PYRIOR Prot, PRCO (Percentage Reduction from Control) [13]: 24; mortality at 500 ppm [7]: 40 to 79%; PUCCRT Prot, PRCO (Percentage Reduction from Control) [9]: 85; UNCINE Erad, PRCO (Percentage Reduction from Control) [10]: 100
CCOCN(C(=O)C(C)c1ccc2sc(CC(C)(C)C)nc2c1)c1snc(CC)c1Cl (stereo not shown) [Table 39 Compound 157]	0 (represents less than 40% mortality)	9 (9 indicates 80-100% mortality)	9 (9 indicates 80-100% mortality)	9 (9 indicates 80-100% mortality)	9 (9 indicates 80-100% mortality)	
CCOCN(C(=O)C(C)c1ccc2oc(C(F)(F)C(F)(F)C(F)(F)F)nc2c1)c1snc(C)c1Cl (stereo not shown) [Table 1 Compound 80]	0 (represents less than 40% mortality)	5 (5 indicates 40-79% mortality)	9 (9 indicates 80-100% mortality)	9 (9 indicates 80-100% mortality)	9 (9 indicates 80-100% mortality)	
CCOCN(C(=O)C(F)c1ccc2oc(CC(C)(C)C)nc2c1)c1snc(C)c1Cl (stereo not shown) [Table 5 Compound 77]	0 (represents less than 40% mortality)	9 (9 indicates 80-100% mortality)	9 (9 indicates 80-100% mortality)	5 (5 indicates 40-79% mortality)	9 (9 indicates 80-100% mortality)	
Cc1nsc(NC(=O)C(=O)c2ccc3oc(CC(C)(C)C)nc3c2)c1Cl [Table 10 Compound 7]		9 (9 indicates 80-100% mortality)			9 (9 indicates 80-100% mortality)	mortality (score) Tu [12]: 0 (represents less than 40% mortality)
Cc1nsc(NC(=O)C(SC(C)C)c2ccc3oc(CC(C)(C)C)nc3c2)c1Cl (stereo not shown) [Table 22 Compound 7]		0 (represents less than 40% mortality)				mortality (score) Tu [12]: 9 (9 indicates 80-100% mortality)
CCOCN(C(=O)C(C)c1ccc2oc(CC(C)C)nc2c1)c1snc(C)c1Cl (stereo not shown) [Table 1 Compound 76]	9 (9 indicates 80-100% mortality)	9 (9 indicates 80-100% mortality)	9 (9 indicates 80-100% mortality)	5 (5 indicates 40-79% mortality)	9 (9 indicates 80-100% mortality)	
Cc1nsc(NC(=O)C(F)c2ccc3sc(CC(C)(C)C)nc3c2)c1Cl (stereo not shown) [Table 42 Compound 7]	9 (9 indicates 80-100% mortality)	9 (9 indicates 80-100% mortality)	9 (9 indicates 80-100% mortality)	9 (9 indicates 80-100% mortality)	5 (5 indicates 40-79% mortality)	
Cc1nsc(NC(=O)C(C)(F)c2ccc3oc(CC(C)(C)C)nc3c2)c1Cl (stereo not shown) [Table 6 Compound 7, N-(4-chloro-3-methylisothiazol-5-yl)-2-[2-(2,2-dimethylpropyl)benzoxazol-5-yl]-2-fluoropropionamide]	5 (5 indicates 40-79% mortality)		9 (9 indicates 80-100% mortality)	9 (9 indicates 80-100% mortality)		mortality at 500 ppm [7]: 80 to 100%
